Values after ≈ are worked out from the molar mass of the structure shown. Like-named read-outs stand apart in the source and are kept apart here.
Assays:
[1] = background, cited from earlier work
[2] = physchem
[3] = Saturation solubility of fulvestrant in combinations of solvents/detergents (Table 2); assay type: physicochemical
Experimental: To increase solubility, various other solvents, co-solvents, and surfactants were tested. For example, in some embodiments the monohydroxylated fatty acids (e.g., free ricinoleic acid) in the solvent were substituted with other lipid solvents such as castor oil or oleic acid. […] Here, some formulations including lipid solvents (especially in combination with ethanol and/or benzyl alcohol) can solubilize fulvestrant at a concentration higher than 60 mg/ml. Yet, most of such formulations capable of solubilizing fulvestrant at a higher concentration (e.g., higher than 60 mg/ml) require higher concentration of alcohols (e.g., higher than 30%, etc.), which may cause instability of the formulation (e.g., precipitation of fulvestrant over time, etc.). Moreover, some solvents also required substantial quantities of emulsifier (e.g., Cremophor™ (hydrogenated castor oil reacted with ethylene oxide)), which is not desirable as an ingredient for injection at the tested concentrations. Indeed, it is generally preferred that the fulvestrant compositions and solutions for injection are substantially free (i.e., less than 1% w/v, or less than 0.1% w/v, or less than 0.01% w/v) from surfactants, detergents, and/or emulsifiers.

With `C[C@]12CC[C@@H]3c4ccc(O)cc4C[C@@H](CCCCCCCCC[S+]([O-])CCCC(F)(F)C(F)(F)F)[C@H]3[C@@H]1CC[C@@H]2O` (stereo partly drawn) [Fulvestrant] as the compound, how does the solubility ([1]; fulvestrant in benzyl alcohol) read?
Its solubility is over 200 mg/mL.

What about the solubility ([1]; fulvestrant in ethanol) of the same compound?
Its solubility is over 200 mg/mL.

And the solubility ([2]; Cremophor RH40, aqueous with cosolvent or surfactant or cyclodextrin)?
The solubility was 47.2 mg/mL (≈ 77.9 mM).

And the solubility ([2]; N,N-dimethylacetamide (DCAM), organic solvent or mixture)?
The solubility was 306 mg/mL (≈ 504 mM).

And the solubility ([2]; PEG 300, organic solvent or mixture)?
Its solubility is 28.3 mg/mL (≈ 46.6 mM).

And the solubility ([2]; PEG 400, organic solvent or mixture)?
Its solubility is 24.8 mg/mL (≈ 40.9 mM).

What about the solubility ([2]; benzyl alcohol, organic solvent or mixture) of the same compound?
The solubility was 269 mg/mL (≈ 443 mM).

And the solubility ([2]; benzyl benzoate, organic solvent or mixture)?
The solubility was 3.9 mg/mL (≈ 6.43 mM).

What about the solubility ([2]; butyric acid, organic solvent or mixture) of the same compound?
Its solubility is 318 mg/mL (≈ 524 mM).

What about the solubility ([2]; castor oil, oil or lipid) of the same compound?
The solubility was 21.2 mg/mL (≈ 34.9 mM).

And the solubility ([2]; dimethylsulfoxide (DMSO), organic solvent or mixture)?
The solubility was 320 mg/mL (≈ 527 mM).

What about the solubility ([2]; ethanol, organic solvent or mixture) of the same compound?
Its solubility is 445 mg/mL (≈ 734 mM).

And the solubility ([2]; heptanoic acid, organic solvent or mixture)?
The solubility was 154 mg/mL (≈ 255 mM).

And the solubility ([2]; hexanoic acid, organic solvent or mixture)?
The solubility was 266 mg/mL (≈ 438 mM).

And the solubility ([2]; octanoic acid, organic solvent or mixture)?
Its solubility is 92.2 mg/mL (≈ 152 mM).

And the solubility ([2]; oleic acid, oil or lipid)?
Its solubility is 4.8 mg/mL (≈ 7.91 mM).

What about the solubility ([2]; olive oil, oil or lipid) of the same compound?
Its solubility is 0.4 mg/mL (≈ 0.659 mM).

And the solubility ([2]; propanoic acid, organic solvent or mixture)?
The solubility was 319 mg/mL (≈ 526 mM).

What about the solubility ([2]; propylene glycol, organic solvent or mixture) of the same compound?
Its solubility is 39.1 mg/mL (≈ 64.4 mM).

And the solubility ([2]; ricinoleic acid, oil or lipid)?
The solubility was 26 mg/mL (≈ 42.8 mM).

What about the solubility ([3]; 12.5% ethanol, 75% castor oil, 12.5% Cremophor RH 40 (% w/v), oil or lipid, thermodynamic from solid, No 11 (% w/v): 12.5% Ethanol, 75% Castor Oil, 12.5% Cremophor RH 40, read-out: Solubility) of the same compound?
The solubility was 128 mg/mL.

What about the solubility ([3]; 50% castor oil, 10% Lipoid E 80, 40% ethanol (% w/v), oil or lipid, thermodynamic from solid, No 12 (% w/v): 50% Castor Oil, 10% Lipoid E 80, 40% Ethanol, read-out: Solubility) of the same compound?
The solubility was 49.3 mg/mL.

What about the solubility ([3]; 50% castor oil, 25% ethanol, 25% Cremophor 40 (% w/v), oil or lipid, thermodynamic from solid, No 9 (% w/v): 50% Castor Oil, 25% Ethanol, 25% Cremophor 40, read-out: Solubility) of the same compound?
Its solubility is 134 mg/mL.

And the solubility ([3]; 50% oleic acid, 25% ethanol, 25% Cremophor 40 (% w/v), oil or lipid, thermodynamic from solid, No 8 (% w/v): 50% Oleic Acid, 25% Ethanol, 25% Cremophor 40, read-out: Solubility)?
The solubility was 130 mg/mL.

And the solubility ([3]; 60% castor oil, 18% BA, 13% ethanol, 9% Lipoid E 80 (% w/v), oil or lipid, thermodynamic from solid, No 14 (% w/v): 60% Castor Oil, 18% BA, 13% Ethanol, 9% Lipoid E 80, read-out: Solubility)?
The solubility was 63 mg/mL.

What about the solubility ([3]; 70% castor oil, 20% oleic acid, 5% BA, 5% ethanol (% w/v), oil or lipid, thermodynamic from solid, No 16 (% w/v): 70% Castor Oil, 20% Oleic Acid, 5% BA, 5% Ethanol, read-out: Solubility) of the same compound?
Its solubility is 49.9 mg/mL.

What about the solubility ([3]; 75% oleic acid, 12.5% ethanol, 12.5% Cremophor RH 40 (% w/v), oil or lipid, thermodynamic from solid, No 10 (% w/v): 75% Oleic Acid, 12.5% Ethanol, 12.5% Cremophor RH 40, read-out: Solubility) of the same compound?
Its solubility is 113 mg/mL.

What about the solubility ([3]; 75% oleic acid, 25% castor oil (% w/v), oil or lipid, thermodynamic from solid, No 5 (% w/v): 75% Oleic Acid, 25% Castor Oil, read-out: Solubility) of the same compound?
The solubility was 15.5 mg/mL.

What about the solubility ([3]; 85% castor oil, 12% BA, 3% HP-B-CD (% w/v), oil or lipid, thermodynamic from solid, No 15 (% w/v): 85% Castor Oil, 12% BA, 3% HP-B-CD, read-out: Solubility) of the same compound?
The solubility was 17.2 mg/mL.

And the solubility ([3]; No 13 (% w/v): 15% Ethanol, 15% Castor Oil, 15% Benzyl Alcohol, 10% Lipoid E 80)?
The solubility was 45.95 mg/mL.

What about the solubility ([3]; oil or lipid, thermodynamic from solid, No 6 (% w/v): 49.5% Oleic Acid, 49.5% Castor Oil, 1% Polysorbate 20, read-out: Solubility) of the same compound?
The solubility was 22.8 mg/mL.

And the solubility ([3]; oil or lipid, thermodynamic from solid, No 7 (% w/v): 74.5% Oleic Acid, 24.5% Castor Oil, 1% Polysorbate 20, read-out: Solubility)?
The solubility was 15.7 mg/mL.

What about the solubility ([3]; oil or lipid, thermodynamic from solid, No 17 (% w/v): 10% Ethanol, 65% Castor Oil, 20% Oleic Acid, 5% Benzyl Alcohol, read-out: Solubility) of the same compound?
Its solubility is 68.8 mg/mL.

What about the solubility ([3]; oil or lipid, thermodynamic from solid, No 18 (% w/v): 5% Ethanol, 65% Castor Oil, 20% Oleic Acid, 10% Benzyl Alcohol, read-out: Solubility) of the same compound?
Its solubility is 39.5 mg/mL.

And the solubility ([3]; oil or lipid, thermodynamic from solid, No 19 (% w/v): 22.5% Castor Oil, 67.5% Oleic Acid, 5% BA, 5% Ethanol, read-out: Solubility)?
Its solubility is 47.3 mg/mL.

And the solubility ([3]; oil or lipid, thermodynamic from solid, No 20 (% w/v): 45% Oleic Acid, 45% Castor Oil, 5% Ethanol, 5% Benzyl Alcohol, read-out: Solubility)?
Its solubility is 43.7 mg/mL.

What about the solubility ([3]; oil or lipid, thermodynamic from solid, No 21 (% w/v): 5% Cremophor EL 35, 5% Ethanol, 5% Benzyl Alcohol, 85% Castor Oil, read-out: Solubility) of the same compound?
The solubility was 24.4 mg/mL.

And the solubility ([3]; solvent mixture, oil or lipid, thermodynamic from solid, No 4 (% w/v): 25% Oleic Acid, 75% Castor Oil, read-out: Solubility)?
The solubility was 18.2 mg/mL.

And the solubility ([3]; solvent mixture, oil or lipid, thermodynamic from solid, No 3 (% w/v): 50% Castor Oil, 50% Oleic Acid, read-out: Solubility)?
Its solubility is 20 mg/mL.

And the solubility ([3]; solvent/detergent mixture, oil or lipid, thermodynamic from solid, No 1 (% w/v): 99% Oleic Acid, 1% Poly. 20, read-out: Solubility)?
Its solubility is 4.08 mg/mL.

And the solubility ([3]; solvent/detergent mixture, oil or lipid, thermodynamic from solid, No 2 (% w/v): 99% Castor Oil, 1% Poly. 20, read-out: Solubility)?
Its solubility is 23.2 mg/mL.

What about the solubility ([3]; solvent/detergent mixture, oil or lipid, thermodynamic from solid, No 22 (% w/v): 5% HS 15, 5% Ethanol, 5% Benzyl Alcohol, 85% Castor Oil, read-out: Solubility) of the same compound?
Its solubility is 39.2 mg/mL.

What about the solubility ([3]; solvent/detergent mixture, oil or lipid, thermodynamic from solid, No 23 (% w/v): 5% Cremophor RH 40, 5% Ethanol, 5% Benzyl Alcohol, 85% Castor Oil, read-out: Solubility) of the same compound?
Its solubility is 38 mg/mL.

And the solubility ([3]; solvent/detergent mixture, oil or lipid, thermodynamic from solid, No 24 (% w/v): 44.5% Oleic Acid, 44.5% Castor Oil, 5% Ethanol, 5% Benzyl Alcohol, 1% Poly. 20, read-out: Solubility)?
The solubility was 51.9 mg/mL.

And the solubility ([3]; solvent/detergent mixture, oil or lipid, thermodynamic from solid, No 25 (% w/v): 67% Oleic Acid, 22% Castor Oil, 5% Ethanol, 5% Benzyl Alcohol, 1% Poly. 20, read-out: Solubility)?
Its solubility is 41 mg/mL.
